From ChEMBL document CHEMBL4330132, “5-Keto-3-cyano-2,4-diaminothiophenes as selective maternal embryonic leucine zipper kinase inhibitors” (Bioorg Med Chem Lett, 2019)

Columns and labels:
[1] = tested on: Epidermal growth factor receptor (Homo sapiens), P00533 [L858R]; assay: Binding affinity to human partial length EGFR L858R mutant (R669 to V1011 residues) expressed in bacterial expression system assessed as residual binding level at 1 uM by Kinomescan method relative to control
[2] = biological target: Serine/threonine-protein kinase Chk2 (Homo sapiens) (UniProt O96017); assay: Binding affinity to wild-type human partial length CHEK2 (S253 to E574 residues) expressed in bacterial expression system assessed as residual binding level at 1 uM by Kinomescan method relative to control
[3] = biological target: NUAK family SNF1-like kinase 2 (Homo sapiens) (UniProt Q9H093); assay: Binding affinity to wild-type human partial length SNARK (P22 to A333 residues) expressed in mammalian expression system assessed as residual binding level at 1 uM by Kinomescan method relative to control
NUAK family SNF1-like kinase 2 (Homo sapiens), sequence (Q9H093 whole entry, the tested form may be a part): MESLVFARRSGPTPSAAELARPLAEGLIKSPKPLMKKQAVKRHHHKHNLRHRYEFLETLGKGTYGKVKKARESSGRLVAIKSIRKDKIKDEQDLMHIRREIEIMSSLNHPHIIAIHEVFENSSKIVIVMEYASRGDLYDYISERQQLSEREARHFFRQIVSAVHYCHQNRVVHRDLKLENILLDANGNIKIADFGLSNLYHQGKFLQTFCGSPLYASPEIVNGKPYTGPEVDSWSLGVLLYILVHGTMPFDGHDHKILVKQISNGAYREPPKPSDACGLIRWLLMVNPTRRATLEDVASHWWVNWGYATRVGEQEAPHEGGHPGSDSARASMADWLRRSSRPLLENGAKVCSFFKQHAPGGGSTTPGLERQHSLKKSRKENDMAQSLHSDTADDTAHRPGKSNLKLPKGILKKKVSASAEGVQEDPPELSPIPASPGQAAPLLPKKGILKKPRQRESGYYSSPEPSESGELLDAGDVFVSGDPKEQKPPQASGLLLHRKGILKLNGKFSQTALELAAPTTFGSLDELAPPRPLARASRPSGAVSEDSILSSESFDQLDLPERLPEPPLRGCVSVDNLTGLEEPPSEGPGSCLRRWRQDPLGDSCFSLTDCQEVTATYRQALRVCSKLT

[4] = biological target: Bone morphogenetic protein receptor type-2 (Homo sapiens) (UniProt Q13873); assay: Binding affinity to wild-type human partial length BMPR2 (R179 to Q526 residues) expressed in mammalian expression system assessed as residual binding level at 1 uM by Kinomescan method relative to control
[5] = biological target: High affinity nerve growth factor receptor (Homo sapiens) (UniProt P04629); assay: Binding affinity to wild-type human partial length TRKA (G475 to G790 residues) expressed in mammalian expression system assessed as residual binding level at 1 uM by Kinomescan method relative to control
[6] = biological target: Casein kinase I isoform alpha-like (Homo sapiens) (UniProt Q8N752); assay: Binding affinity to wild-type human full length CSNK1A1L (M1 to N337 residues) expressed in bacterial expression system assessed as residual binding level at 1 uM by Kinomescan method relative to control
Casein kinase I isoform alpha-like (Homo sapiens), sequence (Q8N752 whole entry, the tested form may be a part, canonical isoform): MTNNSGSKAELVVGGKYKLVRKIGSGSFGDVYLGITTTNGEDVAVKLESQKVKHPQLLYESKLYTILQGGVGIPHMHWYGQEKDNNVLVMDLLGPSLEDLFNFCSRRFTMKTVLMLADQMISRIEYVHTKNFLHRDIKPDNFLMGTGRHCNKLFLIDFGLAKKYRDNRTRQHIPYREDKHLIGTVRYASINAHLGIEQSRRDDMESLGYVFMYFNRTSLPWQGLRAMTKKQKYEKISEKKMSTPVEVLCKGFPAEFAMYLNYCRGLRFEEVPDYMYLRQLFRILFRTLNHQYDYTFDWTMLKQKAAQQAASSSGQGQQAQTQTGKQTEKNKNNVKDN

[7] = biological target: Tyrosine-protein kinase JAK2 (Homo sapiens) (UniProt O60674); assay: Binding affinity to wild-type human partial length JAK2 JH1 catalytic domain (A829 to G1132 residues) expressed in mammalian expression system assessed as residual binding level at 1 uM by Kinomescan method relative to control
[8] = biological target: Ribosomal protein S6 kinase alpha-4 (Homo sapiens) (UniProt O75676); assay: Binding affinity to wild-type human partial length N-terminal RPS6KA4 kinase domain 1 expressed in bacterial expression system assessed as residual binding level at 1 uM by Kinomescan method relative to control
[9] = biological target: Ephrin type-A receptor 2 (Homo sapiens) (UniProt P29317); assay: Binding affinity to wild-type human partial length EPHA2 (T593 to V891 residues) expressed in bacterial expression system assessed as residual binding level at 1 uM by Kinomescan method relative to control
Ephrin type-A receptor 2 (Homo sapiens), sequence (P29317 whole entry, the tested form may be a part): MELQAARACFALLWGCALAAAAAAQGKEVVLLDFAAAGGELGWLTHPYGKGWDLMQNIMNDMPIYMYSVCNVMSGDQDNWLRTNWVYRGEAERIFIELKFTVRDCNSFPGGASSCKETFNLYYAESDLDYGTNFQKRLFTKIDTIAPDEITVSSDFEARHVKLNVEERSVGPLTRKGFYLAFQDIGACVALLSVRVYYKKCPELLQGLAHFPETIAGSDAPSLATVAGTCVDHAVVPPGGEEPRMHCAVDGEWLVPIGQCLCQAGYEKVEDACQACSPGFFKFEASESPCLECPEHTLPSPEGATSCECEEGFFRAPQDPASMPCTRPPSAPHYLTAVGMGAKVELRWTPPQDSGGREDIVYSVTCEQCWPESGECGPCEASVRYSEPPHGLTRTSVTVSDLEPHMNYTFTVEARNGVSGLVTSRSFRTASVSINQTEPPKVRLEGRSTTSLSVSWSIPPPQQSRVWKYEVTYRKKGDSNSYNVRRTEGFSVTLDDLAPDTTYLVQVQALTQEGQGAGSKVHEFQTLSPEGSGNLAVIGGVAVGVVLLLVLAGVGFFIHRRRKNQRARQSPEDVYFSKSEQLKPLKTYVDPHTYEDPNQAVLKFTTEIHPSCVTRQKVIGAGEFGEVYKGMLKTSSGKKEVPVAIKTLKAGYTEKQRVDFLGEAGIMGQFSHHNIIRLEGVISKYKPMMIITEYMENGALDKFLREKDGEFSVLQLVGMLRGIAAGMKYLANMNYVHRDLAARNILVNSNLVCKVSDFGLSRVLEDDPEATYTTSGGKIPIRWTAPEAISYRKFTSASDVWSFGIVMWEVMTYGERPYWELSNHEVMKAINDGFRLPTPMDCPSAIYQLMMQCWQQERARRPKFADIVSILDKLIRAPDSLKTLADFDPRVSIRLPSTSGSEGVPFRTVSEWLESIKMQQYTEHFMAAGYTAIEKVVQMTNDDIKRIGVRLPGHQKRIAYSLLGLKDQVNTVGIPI

[10] = biological target: Calcium-dependent protein kinase 1 (Plasmodium falciparum) (UniProt P62344); assay: Binding affinity to wild-type Plasmodium falciparum full length CDPK1 (M1 to S524 residues) expressed in mammalian expression system assessed as residual binding level at 1 uM by Kinomescan method relative to control
[11] = biological target: Serine/threonine-protein kinase PAK 5 (Homo sapiens) (UniProt Q9P286); assay: Binding affinity to wild-type human partial length PAK7 (Y400 to H719 residues) expressed in bacterial expression system assessed as residual binding level at 1 uM by Kinomescan method relative to control
[12] = biological target: Phosphatidylinositol 4,5-bisphosphate 3-kinase catalytic subunit delta isoform (Homo sapiens) (UniProt O00329); assay: Binding affinity to wild-type human partial length PIK3CD (R108 to Q1044 residues) expressed in mammalian expression system assessed as residual binding level at 1 uM by Kinomescan method relative to control
[13] = biological target: Serine/threonine-protein kinase pim-2 (Homo sapiens) (UniProt Q9P1W9); assay: Binding affinity to wild-type human partial length PIM2 (M1 to E291 residues) expressed in bacterial expression system assessed as residual binding level at 1 uM by Kinomescan method relative to control
[14] = tested on: Phosphatidylinositol 4,5-bisphosphate 3-kinase catalytic subunit alpha isoform (Homo sapiens), P42336 [E542K]; assay: Binding affinity to human partial length PIK3CA E542K mutant (R108 to N1068 residues) expressed in mammalian expression system assessed as residual binding level at 1 uM by Kinomescan method relative to control
Phosphatidylinositol 4,5-bisphosphate 3-kinase catalytic subunit alpha isoform (Homo sapiens), P42336 [E542K], sequence (P42336 whole entry E542K, the tested form may be a part, canonical isoform): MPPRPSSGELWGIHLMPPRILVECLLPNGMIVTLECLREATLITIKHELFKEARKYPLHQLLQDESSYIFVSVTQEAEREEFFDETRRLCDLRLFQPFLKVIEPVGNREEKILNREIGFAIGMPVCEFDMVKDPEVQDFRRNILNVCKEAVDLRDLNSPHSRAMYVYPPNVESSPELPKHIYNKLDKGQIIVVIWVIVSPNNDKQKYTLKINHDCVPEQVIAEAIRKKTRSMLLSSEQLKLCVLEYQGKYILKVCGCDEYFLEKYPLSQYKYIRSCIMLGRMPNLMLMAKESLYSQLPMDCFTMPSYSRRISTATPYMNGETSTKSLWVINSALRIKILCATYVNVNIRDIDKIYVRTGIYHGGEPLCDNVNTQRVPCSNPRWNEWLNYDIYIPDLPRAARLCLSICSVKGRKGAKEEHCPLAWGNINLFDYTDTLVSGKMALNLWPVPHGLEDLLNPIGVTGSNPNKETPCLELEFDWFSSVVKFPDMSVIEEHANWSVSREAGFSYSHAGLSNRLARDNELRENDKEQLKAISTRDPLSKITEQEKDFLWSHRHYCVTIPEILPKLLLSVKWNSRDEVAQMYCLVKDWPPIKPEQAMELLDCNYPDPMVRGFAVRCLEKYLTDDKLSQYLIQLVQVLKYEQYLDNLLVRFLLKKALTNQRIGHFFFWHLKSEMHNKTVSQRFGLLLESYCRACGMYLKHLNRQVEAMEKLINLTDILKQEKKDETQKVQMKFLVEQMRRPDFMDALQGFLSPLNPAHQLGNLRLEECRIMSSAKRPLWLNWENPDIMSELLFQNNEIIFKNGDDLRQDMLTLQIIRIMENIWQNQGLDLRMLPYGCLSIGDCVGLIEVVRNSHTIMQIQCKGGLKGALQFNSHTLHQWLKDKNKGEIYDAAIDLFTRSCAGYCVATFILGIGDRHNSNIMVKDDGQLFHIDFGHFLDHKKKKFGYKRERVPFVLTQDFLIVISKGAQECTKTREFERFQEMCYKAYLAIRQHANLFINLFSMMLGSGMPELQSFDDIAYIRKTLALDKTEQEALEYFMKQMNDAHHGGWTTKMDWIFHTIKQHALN

[15] = biological target: Tyrosine-protein kinase Srms (Homo sapiens) (UniProt Q9H3Y6); assay: Binding affinity to wild-type human partial length SRMS (L208 to P488 residues) expressed in mammalian expression system assessed as residual binding level at 1 uM by Kinomescan method relative to control
Tyrosine-protein kinase Srms (Homo sapiens), sequence (Q9H3Y6 whole entry, the tested form may be a part): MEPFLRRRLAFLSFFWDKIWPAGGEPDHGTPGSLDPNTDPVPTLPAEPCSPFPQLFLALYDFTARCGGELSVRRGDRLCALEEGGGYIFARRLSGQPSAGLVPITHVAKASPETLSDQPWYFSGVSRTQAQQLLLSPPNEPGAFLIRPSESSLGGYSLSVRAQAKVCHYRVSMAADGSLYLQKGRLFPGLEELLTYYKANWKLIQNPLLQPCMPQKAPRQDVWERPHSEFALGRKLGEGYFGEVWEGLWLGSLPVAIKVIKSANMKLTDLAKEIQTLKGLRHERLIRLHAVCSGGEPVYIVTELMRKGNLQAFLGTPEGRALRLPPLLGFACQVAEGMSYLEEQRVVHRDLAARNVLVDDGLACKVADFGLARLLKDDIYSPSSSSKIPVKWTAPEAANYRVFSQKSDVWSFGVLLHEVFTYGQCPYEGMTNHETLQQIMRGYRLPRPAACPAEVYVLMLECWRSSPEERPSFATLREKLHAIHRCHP

[16] = biological target: AP2-associated protein kinase 1 (Homo sapiens) (UniProt Q2M2I8); assay: Binding affinity to human wild-type AAK1 (G25 to L333 residues) expressed in bacterial expression system assessed as residual binding level at 1 uM by Kinomescan method relative to control
[17] = biological target: Ribosomal protein S6 kinase alpha-6 (Homo sapiens) (UniProt Q9UK32); assay: Binding affinity to wild-type human partial length N-terminal RSK4 kinase domain 1 (M1 to E397 residues) expressed in mammalian expression system assessed as residual binding level at 1 uM by Kinomescan method relative to control
[18] = biological target: Microtubule-associated serine/threonine-protein kinase 1 (Homo sapiens) (UniProt Q9Y2H9); assay: Binding affinity to wild-type human partial length MAST1 (S346 to V730 residues) expressed in mammalian expression system assessed as residual binding level at 1 uM by Kinomescan method relative to control
[19] = biological target: Ephrin type-B receptor 4 (Homo sapiens) (UniProt P54760); assay: Binding affinity to wild-type human partial length EPHB4 (H585 to G892 residues) expressed in bacterial expression system assessed as residual binding level at 1 uM by Kinomescan method relative to control
[20] = biological target: Muscle, skeletal receptor tyrosine-protein kinase (Homo sapiens) (UniProt O15146); assay: Binding affinity to wild-type human partial length MUSK (M553 to V869 residues) expressed in bacterial expression system assessed as residual binding level at 1 uM by Kinomescan method relative to control
[21] = biological target: Inhibitor of nuclear factor kappa-B kinase subunit beta (Homo sapiens) (UniProt O14920); assay: Binding affinity to wild-type human full length IKK-beta (M1 to S756 residues) expressed in mammalian expression system assessed as residual binding level at 1 uM by Kinomescan method relative to control
Inhibitor of nuclear factor kappa-B kinase subunit beta (Homo sapiens), sequence (O14920 whole entry, the tested form may be a part): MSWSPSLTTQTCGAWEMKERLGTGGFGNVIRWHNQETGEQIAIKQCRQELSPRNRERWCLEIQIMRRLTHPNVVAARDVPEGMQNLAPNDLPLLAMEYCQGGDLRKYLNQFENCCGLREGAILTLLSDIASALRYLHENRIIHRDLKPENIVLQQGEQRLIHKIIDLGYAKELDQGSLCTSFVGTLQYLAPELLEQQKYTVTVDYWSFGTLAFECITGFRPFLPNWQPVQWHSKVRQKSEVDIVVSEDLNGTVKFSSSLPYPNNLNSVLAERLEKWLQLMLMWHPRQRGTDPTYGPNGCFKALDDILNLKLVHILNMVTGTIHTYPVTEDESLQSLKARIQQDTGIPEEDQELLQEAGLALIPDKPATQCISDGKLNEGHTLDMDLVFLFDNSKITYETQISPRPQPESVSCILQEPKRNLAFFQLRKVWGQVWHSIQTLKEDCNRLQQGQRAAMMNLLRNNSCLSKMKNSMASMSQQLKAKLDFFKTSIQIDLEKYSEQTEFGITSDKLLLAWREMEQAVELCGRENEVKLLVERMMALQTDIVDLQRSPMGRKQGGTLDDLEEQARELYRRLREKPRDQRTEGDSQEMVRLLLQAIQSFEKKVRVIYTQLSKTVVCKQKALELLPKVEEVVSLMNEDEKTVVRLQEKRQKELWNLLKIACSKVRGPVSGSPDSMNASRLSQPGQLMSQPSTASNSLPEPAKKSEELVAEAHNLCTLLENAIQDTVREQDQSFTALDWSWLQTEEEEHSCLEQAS

[22] = biological target: Tyrosine-protein kinase Lyn (Homo sapiens) (UniProt P07948); assay: Binding affinity to wild-type human partial length LYN (C219 to Q511 residues) expressed in bacterial expression system assessed as residual binding level at 1 uM by Kinomescan method relative to control
[23] = biological target: Ribosomal protein S6 kinase alpha-1 (Homo sapiens) (UniProt Q15418); assay: Binding affinity to wild-type human partial length C-terminal RSK1 kinase domain 2 (P360 to L681 residues) expressed in bacterial expression system assessed as residual binding level at 1 uM by Kinomescan method relative to control
Ribosomal protein S6 kinase alpha-1 (Homo sapiens), sequence (Q15418 whole entry, the tested form may be a part): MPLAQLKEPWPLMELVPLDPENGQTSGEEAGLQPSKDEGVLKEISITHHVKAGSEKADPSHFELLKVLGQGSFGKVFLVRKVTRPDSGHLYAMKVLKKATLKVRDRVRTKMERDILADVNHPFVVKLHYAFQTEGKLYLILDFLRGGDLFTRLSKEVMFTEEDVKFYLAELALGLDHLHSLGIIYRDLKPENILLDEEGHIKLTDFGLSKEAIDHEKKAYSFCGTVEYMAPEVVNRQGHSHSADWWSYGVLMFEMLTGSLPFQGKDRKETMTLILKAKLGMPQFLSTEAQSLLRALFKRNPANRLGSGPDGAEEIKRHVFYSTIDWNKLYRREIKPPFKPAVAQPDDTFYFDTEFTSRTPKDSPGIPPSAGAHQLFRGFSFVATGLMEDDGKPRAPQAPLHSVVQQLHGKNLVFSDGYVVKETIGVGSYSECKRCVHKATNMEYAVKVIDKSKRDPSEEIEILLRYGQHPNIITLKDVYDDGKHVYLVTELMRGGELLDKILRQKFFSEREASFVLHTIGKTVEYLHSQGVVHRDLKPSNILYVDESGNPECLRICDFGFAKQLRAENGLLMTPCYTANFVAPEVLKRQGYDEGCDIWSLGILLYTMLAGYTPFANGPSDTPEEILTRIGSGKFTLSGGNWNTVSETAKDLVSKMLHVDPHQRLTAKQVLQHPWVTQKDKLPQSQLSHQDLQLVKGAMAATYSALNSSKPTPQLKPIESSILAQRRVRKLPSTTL

[24] = biological target: Phosphatidylinositol 4-phosphate 3-kinase C2 domain-containing subunit beta (Homo sapiens) (UniProt O00750); assay: Binding affinity to wild-type human partial length PIK3C2B (M1 to L1634 residues) expressed in mammalian expression system assessed as residual binding level at 1 uM by Kinomescan method relative to control

## CC(C)Nc1sc(C(=O)c2ccc(Cl)s2)c(N)c1C#N
[1]
  Activity: 95%
[2]
  Activity: 84%
[3]
  Activity: 100%
[4]
  Activity: 99%
[5]
  Activity: 92%
[6]
  Activity: 91%
[7]
  Activity: 100%
[8]
  Activity: 100%
[9]
  Activity: 100%
[10]
  Activity: 67%
[11]
  Activity: 81%
[12]
  Activity: 78%
[13]
  Activity: 100%
[14]
  Activity: 77%
[15]
  Activity: 91%
[16]
  Activity: 16%
[17]
  Activity: 81%
[18]
  Activity: 100%
[19]
  Activity: 93%
[20]
  Activity: 76%
[21]
  Activity: 100%
[22]
  Activity: 80%
[23]
  Activity: 85%
[24]
  Activity: 100%
